In series [1] the test system is Ba/F3-FGFR1-transfected cells in the presence of 10 ng/ml murine IL3. Description: Ba/F3-FGFR1 (plus IL3) cellular proliferation counterscreen, Alamar Blue. The format is cell-based. To be noted: Mus musculus. A digest of the protocol:
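First, compound was dispensed and cells added at 20000/well, or 10000/well in the larger-well version. Next came a 24 h incubation at 37 °C. Finally, resazurin reagent was applied for 4 h before fluorescence measurement at 540/590 nm.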

Series [2] has as its target T1, Ba/F3-Flt3-transfected cells (Homo sapiens, UniProt P36888, cells depend on it, form not given).
T1 sequence (P36888 1-993): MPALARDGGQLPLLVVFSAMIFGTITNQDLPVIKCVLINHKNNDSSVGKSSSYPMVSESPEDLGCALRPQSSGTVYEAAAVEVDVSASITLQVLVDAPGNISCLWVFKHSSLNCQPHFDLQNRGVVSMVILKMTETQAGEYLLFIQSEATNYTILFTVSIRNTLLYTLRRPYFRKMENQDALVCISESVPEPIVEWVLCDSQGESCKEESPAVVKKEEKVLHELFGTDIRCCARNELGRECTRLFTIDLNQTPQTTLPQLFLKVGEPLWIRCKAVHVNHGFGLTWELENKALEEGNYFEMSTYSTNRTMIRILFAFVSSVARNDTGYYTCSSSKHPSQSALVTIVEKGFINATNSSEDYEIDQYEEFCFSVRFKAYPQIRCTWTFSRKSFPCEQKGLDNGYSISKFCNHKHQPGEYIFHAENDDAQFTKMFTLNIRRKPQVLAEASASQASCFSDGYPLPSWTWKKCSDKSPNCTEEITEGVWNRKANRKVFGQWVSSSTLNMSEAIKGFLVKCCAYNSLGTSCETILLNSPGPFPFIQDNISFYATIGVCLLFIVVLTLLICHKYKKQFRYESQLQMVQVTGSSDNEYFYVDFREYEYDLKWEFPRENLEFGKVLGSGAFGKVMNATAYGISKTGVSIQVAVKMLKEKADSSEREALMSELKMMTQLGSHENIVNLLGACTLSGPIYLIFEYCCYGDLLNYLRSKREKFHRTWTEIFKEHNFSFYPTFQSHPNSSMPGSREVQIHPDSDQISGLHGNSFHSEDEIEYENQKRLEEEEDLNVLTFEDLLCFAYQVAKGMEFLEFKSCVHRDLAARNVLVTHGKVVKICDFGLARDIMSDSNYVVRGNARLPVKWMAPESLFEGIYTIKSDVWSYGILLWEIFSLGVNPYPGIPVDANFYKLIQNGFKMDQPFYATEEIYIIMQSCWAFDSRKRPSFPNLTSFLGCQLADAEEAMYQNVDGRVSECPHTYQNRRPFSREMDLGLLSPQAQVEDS
Description: Ba/F3-Flt3 (minus IL3) cellular proliferation assay, Alamar Blue. The format is cell-based. The following applies: minus IL3. A general note: Resazurin is reduced to fluorescent resorufin, in cell work by metabolically active cells.

For series [3], the target named is KDR (h) (VEGFR2) (Homo sapiens, UniProt P35968). Description: KDR (VEGFR2) (enzymatic assay), TR-FRET. It counts as biochemical. A digest of the protocol: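 First, kinase (150 ng/ml), Btn-Flt3 (500 nM), ATP (3 μM) and compound (1% DMSO) react 120 min at RT in pH 7.5 HEPES/6 mM MnCl2. Next, EDTA with Eu-anti-P-Tyr and SA-XL-665 stops it for 60 min. Finally, TR-FRET is read as RFU.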

[4] abbreviates: plus IL3, 96 well, read-out: BAF3-FGFR 1 (PLUS IL3) 96 well pIC50 (converted).
The mark [5] stands for this setting: plus IL3, 384 well, read-out: BAF3-FGFR 1 (PLUS IL3) 384 well pIC50 (converted).

Several values for one entry are separate records, joined by “and”; a condition that tells them apart may be missing. Equal entries are not always repeated. Where two headings read alike, the source gives them in different places. Where only a bound is given, the exact number is not on record here.

The values that follow come from patent US10052320B2, “Substituted quinoxalines as FGFR kinase inhibitors” (ASTEX THERAPEUTICS LIMITED, priority 2011, dated 2018).

Sequence of KDR (h) (VEGFR2) (P35968 20-1356): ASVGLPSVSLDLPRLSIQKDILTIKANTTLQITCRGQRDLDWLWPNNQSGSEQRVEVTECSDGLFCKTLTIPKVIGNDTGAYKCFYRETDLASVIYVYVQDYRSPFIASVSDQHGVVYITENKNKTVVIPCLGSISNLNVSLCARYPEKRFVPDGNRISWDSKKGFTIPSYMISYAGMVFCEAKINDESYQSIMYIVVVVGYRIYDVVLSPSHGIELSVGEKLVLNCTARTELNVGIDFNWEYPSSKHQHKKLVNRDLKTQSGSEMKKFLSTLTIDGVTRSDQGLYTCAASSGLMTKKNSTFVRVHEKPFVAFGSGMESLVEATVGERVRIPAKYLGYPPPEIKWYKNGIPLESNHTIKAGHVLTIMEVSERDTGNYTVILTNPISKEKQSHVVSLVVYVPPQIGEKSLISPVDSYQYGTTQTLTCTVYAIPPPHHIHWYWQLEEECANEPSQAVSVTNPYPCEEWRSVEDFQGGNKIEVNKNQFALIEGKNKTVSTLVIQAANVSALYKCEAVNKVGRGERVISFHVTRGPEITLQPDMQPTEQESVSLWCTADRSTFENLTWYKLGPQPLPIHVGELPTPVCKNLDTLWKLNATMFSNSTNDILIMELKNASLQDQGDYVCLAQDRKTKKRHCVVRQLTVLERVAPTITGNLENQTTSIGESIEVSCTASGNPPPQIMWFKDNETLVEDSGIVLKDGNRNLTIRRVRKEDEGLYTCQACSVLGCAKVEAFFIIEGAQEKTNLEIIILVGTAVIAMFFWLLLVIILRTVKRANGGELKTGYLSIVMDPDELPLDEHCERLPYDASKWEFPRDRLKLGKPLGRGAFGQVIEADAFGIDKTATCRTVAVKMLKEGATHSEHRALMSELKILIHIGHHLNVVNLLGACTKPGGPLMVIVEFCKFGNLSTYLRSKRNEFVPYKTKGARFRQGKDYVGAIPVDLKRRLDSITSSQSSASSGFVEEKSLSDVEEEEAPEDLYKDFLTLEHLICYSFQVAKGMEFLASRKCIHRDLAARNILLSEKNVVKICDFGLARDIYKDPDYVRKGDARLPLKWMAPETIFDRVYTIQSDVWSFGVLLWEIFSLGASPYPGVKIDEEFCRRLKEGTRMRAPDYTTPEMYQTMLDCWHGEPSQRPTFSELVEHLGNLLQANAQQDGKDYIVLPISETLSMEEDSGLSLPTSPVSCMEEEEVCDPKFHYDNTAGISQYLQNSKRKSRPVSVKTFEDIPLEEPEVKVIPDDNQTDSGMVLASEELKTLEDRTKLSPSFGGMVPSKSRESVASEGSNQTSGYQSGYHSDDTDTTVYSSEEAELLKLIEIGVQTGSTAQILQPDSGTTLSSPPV

The term melting point denotes the temperature, or range, at which the solid turns liquid. Turning to `COc1cc(OC)cc(N(CC2CC2)c2ccc3ncc(-n4cncn4)nc3c2)c1` [Compound 50], the melting point was determined as 168 °C. For the same compound, the IC50 in series [1] (setting [4]) is greater than 10 µM. Moreover, the IC50 in series [1] (setting [5]) was greater than 10 µM. For the same compound, in series [2], the “BAF3-FLT3 (MIN IL3) 96 well pIC50” value is listed as less than 5 and the “BAF3-FLT3 (MIN IL3) 384 well pIC50” value is less than 5. Also, in series [3], the IC50 is greater than 1 µM.

`COc1cc(OC)cc(N(CC2CC2)c2ccc3ncc(-c4cnco4)nc3c2)c1` [Compound 55] registered a melting point of 152 °C. Moreover, in series [1] (setting [4]), the IC50 was greater than 10 µM. Also, the IC50 in series [1] (setting [5]) was greater than 10 µM. In series [2], the “BAF3-FLT3 (MIN IL3) 96 well pIC50” value was less than 5 and the “BAF3-FLT3 (MIN IL3) 384 well pIC50” value is less than 5. In series [3], this compound had an IC50 of 0.912 µM.

The compound `COc1cc(OC)cc(N(CC2CC2)c2ccc3ncc(-c4ccn(CCO)c4)nc3c2)c1` [Compound 56] displayed a melting point of 143 °C. Further, the IC50 in series [1] (setting [4]) is greater than 10 µM. The IC50 in series [1] (setting [5]) was greater than 10 µM. In series [2], the “BAF3-FLT3 (MIN IL3) 96 well pIC50” value was less than 5 and the “BAF3-FLT3 (MIN IL3) 384 well pIC50” value is listed as less than 5. For the same compound, in series [3], the IC50 is 0.151 µM.

For the compound `COc1cc(OC)cc(N(CC2CC2)c2ccc3ncc(-c4nccn4C)nc3c2)c1` [Compound 60], the melting point is 175 °C. Further, the IC50 in series [1] (setting [4]) was greater than 10 µM. Moreover, the IC50 in series [1] (setting [5]) is greater than 10 µM. Moreover, in series [2], the “BAF3-FLT3 (MIN IL3) 96 well pIC50” value is on record as less than 5 and the “BAF3-FLT3 (MIN IL3) 384 well pIC50” value is less than 5. The same compound gave an IC50 in series [3] greater than 10 µM.

As for `COc1cc(OC)cc(N(CC2CC2)c2ccc3ncc(Nc4cnn(C)c4)nc3c2)c1` [Compound 61], the melting point is 160 °C. For the same compound, the IC50 in series [1] (setting [4]) was 6.92 µM. In addition, the IC50 in series [1] (setting [5]) is greater than 10 µM. Further, in series [2], the “BAF3-FLT3 (MIN IL3) 96 well pIC50” value is 5.25 and the “BAF3-FLT3 (MIN IL3) 384 well pIC50” value is on record as less than 5. Further, the IC50 in series [3] is greater than 1 µM.

Turning to `COc1cc(OC)cc(N(CC2CC2)c2ccc3ncc(-n4nccc4C)nc3c2)c1` [Compound 62], the melting point worked out at 139 °C. For the same compound, the IC50 in series [1] (setting [4]) was greater than 10 µM. Also, the IC50 in series [1] (setting [5]) is greater than 10 µM. In series [2], the “BAF3-FLT3 (MIN IL3) 96 well pIC50” value is given as less than 5 and the “BAF3-FLT3 (MIN IL3) 384 well pIC50” value was less than 5. In series [3], the IC50 was greater than 1 µM.

Take `COc1cc(OC)cc(N(CC2CC2)c2ccc3ncc(-c4cn[nH]n4)nc3c2)c1` [Compound 69]: the melting point was 173 °C and 172 °C. Further, in series [1] (setting [4]), the IC50 is greater than 10 µM. The IC50 in series [1] (setting [5]) is greater than 10 µM. Besides, in series [2], the “BAF3-FLT3 (MIN IL3) 96 well pIC50” value is less than 5 and the “BAF3-FLT3 (MIN IL3) 384 well pIC50” value was less than 5. The IC50 in series [3] is greater than 1 µM.

Consider `COc1cc(OC)cc(N(CC2CC2)c2ccc3ncc(-c4cnn(C)n4)nc3c2)c1` [Compound 70], for which the melting point turned out to be 129 °C. For the same compound, the IC50 in series [1] (setting [4]) was greater than 10 µM. The IC50 in series [1] (setting [5]) was greater than 10 µM. Also, in series [2], the “BAF3-FLT3 (MIN IL3) 96 well pIC50” value is listed as less than 5 and the “BAF3-FLT3 (MIN IL3) 384 well pIC50” value is given as less than 5. In addition, the IC50 in series [3] was greater than 1 µM.

The compound `COc1cc(OC)cc(N(CC2CC2)c2ccc3ncc(-c4cn(C)nn4)nc3c2)c1` [Compound 71] yielded a melting point of 141 °C. In addition, the IC50 in series [1] (setting [4]) is greater than 10 µM. The IC50 in series [1] (setting [5]) was greater than 10 µM. For the same compound, in series [2], the “BAF3-FLT3 (MIN IL3) 96 well pIC50” value is listed as less than 5 and the “BAF3-FLT3 (MIN IL3) 384 well pIC50” value is on record as less than 5. Further, the IC50 in series [3] is 0.813 µM.

With `COc1cc(OC)cc(N(CC2CC2)c2ccc3ncc(-c4cnnn4C)nc3c2)c1` [Compound 72], the melting point was 169 °C. The IC50 in series [1] (setting [4]) is 7.94 µM. In series [1] (setting [5]), the IC50 was greater than 10 µM. Also, in series [2], the “BAF3-FLT3 (MIN IL3) 96 well pIC50” value was less than 5 and the “BAF3-FLT3 (MIN IL3) 384 well pIC50” value was 5.09. The compound also showed an IC50 in series [3] greater than 1 µM.

`COc1cc(OC)cc(N(CC2CC2)c2ccc3ncc(-c4ccn(C)c4)nc3c2)c1` [Compound 73] gave a melting point of 110 °C. The IC50 in series [1] (setting [4]) is greater than 10 µM. Moreover, the IC50 in series [1] (setting [5]) was greater than 10 µM. Also, in series [2], the “BAF3-FLT3 (MIN IL3) 96 well pIC50” value amounted to 5.31 and the “BAF3-FLT3 (MIN IL3) 384 well pIC50” value is 5.03. Further, the IC50 in series [3] is 0.295 µM.
